Legend:
SK-RC-52 tumor = assay: Biodistribution study (SPECT/CT) in SK-RC-52 tumor-bearing mice with or without gelofusine; type: in vivo, NMRI nude mice; conditions: SK-RC-52, In-111-labeled; for % remaining tumor uptake at 24 h p.i.: Mean ± SEM
[1] = Allometry and prediction of human exposure and PK parameters; conditions: allometry from mouse and dog PK
Experimental: From the variety of CL, Vd and T1/2 determined in the animal studies, the highest and lowest values for each species were retained, and allometry was conducted on all the combinations to obtain a range for each predicted human PK parameter.
The missing input parameters were dealt with as follows. Regarding blood:plasma concentration ratio, the frequent default values of 1.0 and 0.8 were considered and found to make no difference to the outputs, so it was left at 1.0. Plasma protein binding: a free fraction fup of 1 was considered in order to estimate the highest C5 min values.

human CAIX = human CAIX (Homo sapiens, UniProt Q16790); assay: In vitro SPR binding assay of DPI-4452, natLu-DPI-4452 and natGa-DPI-4452 to CAIX (anti-human Fc capture); design: purchased SinoBliological (Sino Biological) 10107-H02H
Experimental: Surface Plasmon Resonance (SPR) studies were performed on a Biacore™ T200 using a ligand capture approach. Basically, anti-human Fc antibodies were immobilized on the surface of a sensor chip and CAIX was captured on the functionalized surface via its Fc Tag.
Then, each compound was injected at increasing concentrations on the captured CAIX in order to measure the in real-time interaction of the compound to its target (i.e. the captured CAIX). The in real-time monitoring of the association and dissociation of the interaction gives access to the interaction kinetics parameters (i.e. the association and dissociation rate constants and the resulting affinity constants).
• A series S CM5 sensor chip was used (Cytiva). • All reagents used for the immobilization procedure were part of the Amine Coupling Kit, type 2 and/or the Human Antibody Capture Kit (Cytiva). The running buffer (HBS-EP+) was prepared by 10-fold dilution of the stock HBS-EP+ 10× solution (Cytiva). • Anti-human Fc antibodies stock solution (0.5 mg/mL in 0.15 M NaCl) was diluted in 10 mM sodium acetate pH 5.0 to a final concentration of 25 μg/mL directly into a plastic vial 7 mm. • Amine coupling reagents were transferred into plastic vials 7 mm as follow: • 95 μL of 0.4 M 1-ethyl-3-(3-dimethylaminopropyl)carbodiimide (EDC). • 95 μL of 0.1 M N-hydroxysuccinimide (NHS). • An empty plastic vial 7 mm was added in the Biacore™ sample rack for mixing. • 150 μL of 1 M ethamolamine-HCl, pH 8.5. • Plastic vials were closed with rubber caps and the sample rack was inserted into the Biacore™ T200 sample compartment. • The Biacore™ T200 Amine Wizard was used to immobilize the anti-Human Fc antibodies on the four flow-cells of a series S CM5 sensor chip simultaneously with defined contact time of 360 seconds and flow-rate of 5 μL/min. • The immobilization procedure was performed at 25° C., following Cytiva's recommendations, as described in Table 23.
This procedure allowed to reach immobilization levels between 6000 and 9000 RU of anti-human Fc antibodies on the sensor chip surface.
• CAIX (Sino Biological, 10107-H02H) stock solution was prepared from lyophilized material reconstituted with deionized water to a concentration of 0.25 μg/mL (3.69 μM), following the supplier recommendations. • CAIX working solution was obtained after dilution of CAIX stock solution with PBS-P+1×, 0.1% DMSO to a final concentration of 200 nM directly in a Biacore™ plastic vial.
• For each measurement, the raw surface plasmon resonance response (RU) was plotted against time (s) as a sensorgram using the Biacore™ T200 Control Software. • Raw data were corrected by double referencing with subtraction of the signal of both the reference flow-cell and the blank cycle. • The association and dissociation rate constants (ka and kd, respectively), as well as the dissociation constant KD and dissociation half-life t1/2 were determined from the corrected sensorgrams by fitting the data to a 1:1 Langmuir binding model with the Biacore™ T200 evaluation software.

[2] = Biodistribution study in healthy dog (SPECT/CT, blood pharmacokinetics, urine excretion); conditions: in vivo

Compound | Time to peak uptake in tumor (SK-RC-52 tumor; 4% gelofusine before) [h] | % remaining tumor uptake at 24 h p.i. (SK-RC-52 tumor; 4% gelofusine before) [%] | Time to peak uptake in tumor (SK-RC-52 tumor; no gelofusine) [h] | % remaining tumor uptake at 24 h p.i. (SK-RC-52 tumor; no gelofusine) [%] | predicted human clearance (CL) [1] [mL/min/kg] | predicted human terminal half-life (T1/2) [1] [min] | predicted human volume of distribution (Vd) [1] [L/kg] | affinity of binding to CAIX (human CAIX; SPR) | t1/2 (human CAIX; SPR dissociation half-life) [min] | mean dissociation half-life (human CAIX; SPR, 25°C) [min] | half-life [2] [min] | half-life ([2]; iv) [min]
CC(C)C[C@@H]1NC(=O)[C@H](Cc2cccc(NC(=O)CCCS(N)(=O)=O)c2)NC(=O)[C@H](CC(=O)O)NC(=O)[C@H]2CCCN2C(=O)[C@H](CCC(=O)O)NC(=O)[C@@H](NC(=O)[C@H](CCC(N)=O)NC(=O)CN2CCN(C(=O)CN3CCN(CC(=O)O)CCN(CC(=O)O)CCN(CC(=O)O)CC3)CC2)CSCc2cccc(c2)CSC[C@@H](C(N)=O)NC(=O)[C@H](CO)NC(=O)[C@H](Cc2c[nH]c3ccccc23)NC(=O)[C@H]([C@@H](C)O)NC1=O [DPI-4452, DOTA-PPAc-Gln-[Cys(3MeBn)-Glu-pro-Asp-Af3(Cpsu)-Leu-Thr-Trp-Ser-Cys]-NH2] | 4 | 69.6 ± 6.6 | 1 | 73.3 ± 0.8 | 3.57 to 13.0 | 10.2 to 88.2 | 0.189 to 0.455 | subnanomolar affinity | 99 | 99 |  | 
CC(C)C[C@@H]1NC(=O)[C@H](Cc2cccc(NC(=O)CCCS(N)(=O)=O)c2)NC(=O)[C@H](CC(=O)O)NC(=O)[C@H]2CCCN2C(=O)[C@H](CCC(=O)O)NC(=O)[C@@H](NC(=O)[C@H](CCC(N)=O)NC(=O)CN2CCN(C(=O)CN3CCN(CC(=O)O)CCN(CC(=O)O)CCN(CC(=O)O)CC3)CC2)CSCc2cccc(c2)CSC[C@@H](C(N)=O)NC(=O)[C@H](CO)NC(=O)[C@H](Cc2c[nH]c3ccccc23)NC(=O)[C@H]([C@@H](C)O)NC1=O [[^111In]In-DPI-4452, metal not drawn] |  |  |  |  |  |  |  |  |  |  | 55.6 | 5.43

From US20250339569A1, “CARBONIC ANHYDRASE IX LIGANDS” (priority 2021, published 2025)
